Calls of active or inactive are those of the source. The calls are words filed in the database; no cut-off is given here.
Experiments:
Pseudomonas aeruginosa [1] = assay: Inhibition of quorum sensing system in Pseudomonas aeruginosa ATCC 27853 assessed as inhibition of […] pigmentation at 0.1 to 0.5 mM relative to control
Pseudomonas aeruginosa [2] = assay: Antibacterial activity against Pseudomonas aeruginosa ATCC 27853 assessed as growth inhibition at 100 ug/mL measured every 2 hrs up to 20 hrs; assay type: functional, organism-based
Pseudomonas aeruginosa [3] = assay: Inhibition of quorum sensing system in Pseudomonas aeruginosa ATCC 27853 assessed as inhibition of swimming motility at 0.1 to 0.5 mM after 24 hrs relative to control
Pseudomonas aeruginosa [4] = assay: Inhibition of quorum sensing system in Pseudomonas aeruginosa ATCC 27853 assessed as inhibition of swarming motility at 0.1 to 0.5 mM after 24 hrs relative to control
Pseudomonas aeruginosa [5] = assay: Inhibition of quorum sensing system in Pseudomonas aeruginosa ATCC 27853 assessed as inhibition of rhamnolipid production at 0.1 to 0.5 mM relative to control
Pseudomonas aeruginosa [6] = assay: Inhibition of quorum sensing system in Pseudomonas aeruginosa ATCC 27853 assessed as inhibition of twitching motility at 0.1 to 0.5 mM after 24 hrs relative to control
Pseudomonas aeruginosa [7] = assay: Inhibition of quorum sensing system in Pseudomonas aeruginosa ATCC 27853 assessed as inhibition of LasA at 0.1 to 0.5 mM relative to control
Pseudomonas aeruginosa [8] = assay: Ratio of compound activity to salicylic acid activity for inhibition of quorum sensing system-mediated biofilm formation in Pseudomonas aeruginosa ATCC 27853
Pseudomonas aeruginosa [9] = assay: Inhibition of quorum sensing system in Pseudomonas aeruginosa ATCC 27853 assessed as inhibition of biofilm formation at > 1.8 mM after 24 hrs by crystal violet staining method relative to control
Pseudomonas aeruginosa [10] = conditions: ATCC 27853, 4 mM
Description: Inhibition of quorum sensing system in Pseudomonas aeruginosa ATCC 27853 assessed as inhibition of biofilm formation at 4 mM after 24 hrs by crystal violet staining method relative to control

| Structure (SMILES) | inhibition (Pseudomonas aeruginosa [1]) [%] | growth inhibition (GI) (Pseudomonas aeruginosa [2]) | inhibition (Pseudomonas aeruginosa [3]) [%] | inhibition (Pseudomonas aeruginosa [4]) [%] | inhibition (Pseudomonas aeruginosa [5]) [%] | inhibition (Pseudomonas aeruginosa [6]) [%] | inhibition (Pseudomonas aeruginosa [7]) [%] | Ratio (Pseudomonas aeruginosa [8]) | inhibition (Pseudomonas aeruginosa [9]) [%] | inhibition (Pseudomonas aeruginosa [10]) [%] |
| --- | --- | --- | --- | --- | --- | --- | --- | --- | --- | --- |
| CCCCCCCCCCCCCC[C@@H]1CCCN1 | 37 | inactive | 33 | 95 | 42 | 15 | 34 | 2 | 83 |  |
| O=C(O)c1ccccc1O |  |  | 40 | 60 |  | 35 |  |  |  | 48 |

Reference: ChEMBL document CHEMBL2375258, “Synthesis of (R)-norbgugaine and its potential as quorum sensing inhibitor against Pseudomonas aeruginosa” (Bioorg Med Chem Lett, 2013)
